Consider two compounds from US8193168B2, “Use of a TRPM5 inhibitor to regulate insulin and GLP-1 release” (Redpoint Bio Corporation, priority 2007, dated 2012).

In experiment [1] the test system is GLUTag cells. Kind of experiment: GLP-1 release from GLUTag cells (GLP-1 ELISA). Type of experiment: cell-based, mouse. To be noted: 12.5 mM glucose, FIG. 17. Here is the method:
Mouse GLUTag cells are a native intestinal cell line which expresses TRPM5. The cell line was obtained from Dr. Daniel J. Drucker in the Division of Endocrinology, Department of Medicine, at University of Toronto, and grown in Invitrogen Dulbecco's Modified Eagle's Medium (DMEM) high glucose (Cat #: 11995) with 10% fetal bovine serum (FBS) and 1× penn/strep antibiotic mix in a 37° C. incubator with 5% CO2.
All reagents and media were pre-warmed to room temperature prior to the beginning of the experiment. Substrate diluent and the light-sensitive Substrate were thawed out right before use.
BD 96-well Matrigel-coated plates (Fisher, Cat #: 08-774-166) with GLUTag cells were rehydrated using 100 μL of plating media (Invitrogen's (Cat #: 31985) OPTI-Modified Eagle's Medium (MEM) with 10% FBS and 1× penn/strep antibiotic mix) and incubated for 30 minutes in a 37° C. incubator with 5% CO2. GLUTag cells were then trypsinized and counted. A cell dilution with seeding density of 7.5×10^5 cells/ml of GLUTag cells was created. The rehydration media was aspirated from the Matrigel coated plate. […] of cell dilution were plated into each well of the plate. The plates were then incubated overnight in a 37° C. incubator with 5% CO2.
The following protocol utilized the Millipore GLP-1 ELISA Kit (Cat. #: EGLP-35K) to analyze GLP-1 secretion from GLUTag cells in the presence of TRPM5 inhibitors/enhancers and glucose.
Stock solutions and dilution plates of TRPM5 inhibitors or enhancers were prepared. 1% of bovine serum albumin (BSA) was added to Krebb's Ringer Bicarbonate Buffer (KRBB) right before use. KRBB consists of 118.5 mM NaCl, 2.54 mM CaCl2.2H2O, 1.19 mM KH2PO4, 4.74 mM KCl, 25 mM NaHCO3, 1.19 mM MgSO4.7H2O, and 10 mM HEPES buffer at pH 7.4. The cell plates were incubated with 100 μL of KRBB for 30 minutes. The KRBB buffer was then aspirated. This incubation step was repeated once. The KRBB buffer was aspirated and replaced with 150 μL of the same buffer containing various concentration of TRPM5 inhibitors or enhancers and glucose, i.e. 12.5 mM glucose and 1.5 μM TRPM5 inhibitors. KRBB buffer without the TRPM5 inhibitors/enhancers and glucose were also tested in triplicates. Static incubations of treated cells were then performed for 2 h in a 37° C. incubator with 5% CO2.
During the last 30 minutes of the two-hour incubation, 96-well ELISA plates were prepared as follows. […]

The test system of experiment [2] is GLUTag cells. Kind of experiment: GLP-1 release from GLUTag cells (GLP-1 ELISA). In kind it is cell-based, mouse. To be noted: for IC50: Mus musculus, GLUTag cells. A general note: In an ELISA, binding on a coated surface is turned into a signal by an enzyme label.
Experiment [3] concerns the target T1, TRPM5 (Homo sapiens, UniProt Q9NZQ8).
T1 sequence (Q9NZQ8 1-1165): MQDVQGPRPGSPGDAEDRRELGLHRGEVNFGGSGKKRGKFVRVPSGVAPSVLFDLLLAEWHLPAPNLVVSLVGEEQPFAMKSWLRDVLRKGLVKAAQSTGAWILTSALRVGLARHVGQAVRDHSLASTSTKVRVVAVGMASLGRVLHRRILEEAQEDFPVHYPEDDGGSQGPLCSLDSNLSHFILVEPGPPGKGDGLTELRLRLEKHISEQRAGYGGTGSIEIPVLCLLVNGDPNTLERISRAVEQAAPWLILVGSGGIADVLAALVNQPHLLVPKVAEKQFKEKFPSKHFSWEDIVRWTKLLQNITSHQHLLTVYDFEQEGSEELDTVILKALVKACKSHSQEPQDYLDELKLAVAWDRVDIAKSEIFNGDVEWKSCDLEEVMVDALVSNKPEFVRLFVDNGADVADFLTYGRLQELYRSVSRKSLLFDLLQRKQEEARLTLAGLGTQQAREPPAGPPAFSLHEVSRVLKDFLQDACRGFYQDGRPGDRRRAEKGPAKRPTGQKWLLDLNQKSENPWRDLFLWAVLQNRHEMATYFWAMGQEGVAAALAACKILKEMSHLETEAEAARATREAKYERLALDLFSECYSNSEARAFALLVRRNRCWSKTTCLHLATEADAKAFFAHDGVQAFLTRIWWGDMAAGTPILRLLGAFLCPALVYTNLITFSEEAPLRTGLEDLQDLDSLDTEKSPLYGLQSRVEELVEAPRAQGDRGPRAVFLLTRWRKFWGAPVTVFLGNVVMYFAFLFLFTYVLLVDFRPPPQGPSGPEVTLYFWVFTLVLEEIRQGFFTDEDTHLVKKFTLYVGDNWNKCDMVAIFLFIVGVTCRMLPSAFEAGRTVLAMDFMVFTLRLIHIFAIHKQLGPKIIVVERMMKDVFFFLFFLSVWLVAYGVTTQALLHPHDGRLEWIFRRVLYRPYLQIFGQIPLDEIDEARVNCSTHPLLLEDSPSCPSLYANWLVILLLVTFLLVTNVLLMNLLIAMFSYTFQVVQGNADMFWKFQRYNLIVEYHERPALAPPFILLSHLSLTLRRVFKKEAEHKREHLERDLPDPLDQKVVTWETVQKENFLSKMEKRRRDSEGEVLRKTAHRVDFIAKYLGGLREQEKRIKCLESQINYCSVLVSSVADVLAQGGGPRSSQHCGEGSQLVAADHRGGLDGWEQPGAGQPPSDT
Nature of the experiment: TRPM5 inhibition (FLIPR Membrane Potential Assay). Type of experiment: cell-based.

Setting [4] is: moderately high glucose (3.3 mM), FIG. 18.

As usually defined, the IC50 is the concentration needed to halve the response being measured. Read a high IC50 as weaker potency in that assay. Take `COc1ccc(/C=N/NC(=O)Cc2cccc3ccccc23)cc1OC` [Example 3, (E)-N′-(3,4-Dimethoxybenzylidene)-2-(naphthalene-1-yl)acetohydrazide]: the GLP-1 secretion entry in experiment [1] is reported as “increase GLP-1 secretion”; in experiment [2] (10 mM glucose, FIG. 16) it was “enhances GLP-1 secretion”. Besides, the “efficacy and potency of GLP-1 secretion, compared between compounds” value in experiment [1] is recorded as “increases the efficacy of GLP-1 secretion”. The IC50 in experiment [2] (low glucose (0.1 mM), FIG. 19) stood at 600 nM; in experiment [3], 600 nM. Also, the GLP-1 release result is recorded as “increase GLP-1 release” in experiment [2] (low glucose (0.1 mM), FIG. 19) and “increase GLP-1 release” in experiment [2] (setting [4]).
In the case of `COc1ccc(/C=N/NC(=O)CCn2c3ccccc3c3ccccc32)cc1OC` [Example 23, 3-Carbazol-9-ylpropionic acid (3,4-dimethoxybenzylidene)hydrazide], in experiment [1], the GLP-1 secretion entry is given as “increase GLP-1 secretion”; the “efficacy and potency of GLP-1 secretion, compared between compounds” value is “more potent than the compound of Example 3”. Further, in experiment [2] (low glucose (0.1 mM), FIG. 19), 111 nM corresponded to half-maximal inhibition (IC50) and the GLP-1 release result is reported as “increase GLP-1 release”. For the same compound, the GLP-1 release result in experiment [2] (setting [4]) is listed as “increase GLP-1 release”. The same compound returned an IC50 in experiment [3] of 500 nM.
